PubChem BioAssay AID179 (DTP/NCI, 2004)
Several values for one entry are separate records, joined by “and”; a condition that tells them apart may be missing. Equal values may be shown once. Activity calls are given as the source filed them.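 The calls were made as follows: active = compounds giving half or more protection of infected cells from virus-caused growth loss, again on retest; inactive = the rest.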

Tested on: CEM cells HIV-1 protection, formazan growth assay
Assay: NCI AIDS Antiviral Assay
Details: for IC50: measured here: growth of uninfected CEM cells
Experimental: The ability of compounds to protect human CEM cells from HIV-1 infection is measured as a screen for new compounds capable of inhibiting the HIV virus. Five concentrations of drug were tested on uninfected and infected cells and cell growth was measured using a soluble formazan assay. […] Compounds that provided at least 50% protection were retested. Compounds that provided at least 50% protection on retest were listed as moderately active. Compounds that reproducibly provided 100% protection were listed as confirmed active. […] Note that the inability to provide protection could be due to toxicity.

Compound | EC50 | IC50 | outcome
COc1ccc2c(c1)CC1COc3cc(OC)ccc3C1O2 (stereo not given) | > 200 µM | > 200 µM | 
COc1ccc(NC(C)=O)c(Cl)c1 | > 1260 µM | > 1260 µM | 
O=C(Nc1ccc(Cl)cc1)Sc1nnc2c(n1)[nH]c1ccccc12 | 30.2 µM | > 200 µM | 
Clc1cnc(Oc2ccccc2)c2ccccc12 | > 200 µM | 64.6 µM | 
CC(C)=CCC/C(C)=C\CCC1(C)OC(=O)C2CC21 (stereo not given) | > 200 µM | 81.3 µM and 36.3 µM | 
CCC(CCCN)Nc1cc(OC)cc2cccnc12 (stereo not given) | > 200 µM | 6.31 µM | 
Cc1cc(N(CCC#N)CCC#N)ccc1N=Nc1cccc(C(=O)O)c1 | > 72.4 µM | 57.5 µM | 
Cc1ccc(S(=O)(=O)SCC(=O)c2ccc([N+](=O)[O-])cc2)cc1 |  | 102 µM | inactive
CCn1c2ccccc2c(=O)c2c(OC)ccc(OC)c21 |  |  | inactive
CCCCCCCN(O)CC1OC(n2ccc(=O)[nH]c2=O)C(O)C1O (stereo not given) | > 200 µM | 141 µM | 
CC(CC(N)C(=O)O)C(=O)O (stereo not given) | > 200 µM | > 200 µM | 
CC(=O)OC1COC(n2c(=S)n(-c3ccc(C)cc3)c(=O)c3ccccc32)C(OC(C)=O)C1OC(C)=O (stereo not given) | > 25.7 µM | > 25.7 µM | 
Clc1ccc(CNCCCNCc2ccc(Cl)cc2Cl)c(Cl)c1 | > 200 µM | 22.4 µM | 
Cc1cccc2c1C/C(=C\c1cccc(C)c1C(=O)O)C2=O |  |  | inactive
Cn1c(-c2ccccc2)cc(-c2ccc3c(c2)OCO3)c1-c1ccsc1 | > 200 µM | > 200 µM | 
CC1OC(OC2C(OC(=O)[C@]34CCC(C)(C)CC3C3=CCC5[C@@]6(C)C[C@H](O)[C@H](OC7OC(COC8OC(CO)C(O)C(O)C8O)C(O)C(O)C7O)[C@@](C)(C(=O)O)C6CC[C@@]5(C)C3(C)CC4)OCC(O)C2O)C(O)C(O)C1OC1OCC(O)C(O)C1O (stereo not given in full) | > 110 µM | > 110 µM | 
CC(C)N1C(=O)N(Cl)C2C1N(Cl)C(=O)N2Cl (stereo not given) | > 200 µM | > 200 µM | 
Cc1ccc(-c2cc(=O)c3cc(C)c(C)c(C(=O)O)c3o2)cc1C |  |  | inactive
CCCCCCCCOC(CO)CO | > 251 µM | > 251 µM | 

Compound | EC50 | IC50 | outcome
CCN(CC)CCN1C(=O)c2cccc3cc(N)cc(c23)C1=O | > 200 µM | 8.13 µM | 
CCCCCCCCCCCC1=c2o[nH]c2=C(c2ccccn2)C(=O)C1=O | > 19.5 µM | > 19.5 µM | 
Cc1ccccc1NC(=S)Nc1ccccn1 | > 200 µM | 95.5 µM | 
COc1ccc(C2=Nc3ccccc3NC(=O)C2)cc1 | > 37.2 µM | > 37.2 µM | 
O=C(C(Cl)=C(Nc1ccccc1)Nc1ccccc1)C(Cl)Cl | > 200 µM | 19.5 µM | 
CCN(CC)c1ccc2c(C)cc(=O)oc2c1 | > 219 µM | 105 µM | 
CC(C)(C)c1cc(C2NC(=O)NC2=O)cc(C(C)(C)C)c1O (stereo not given) | > 20 µM | > 20 µM | 
COC(=O)/C(C#N)=C\N1CCNC1=S | > 200 µM | > 200 µM | 
COc1ccc2c(n1)Sc1c(Cl)nc(N)nc1N2 | > 158 µM | > 158 µM | 
CC1=NOCC(=O)N1 | > 2190 µM | > 2190 µM | 
CC(C(O)Cc1ccccc1)N(C)N=Nc1ccc([N+](=O)[O-])cc1 (stereo not given) | > 200 µM | 20 µM | 
Cc1ccc(C)c(N2C(=O)C(=O)C(c3nc4ccccc4s3)C(=O)C2=O)c1 |  |  | inactive
C/C=C/C#CC#CC(O)C(/C=C/CCCO)OC1OC(COC2OC(CO)C(O)C(O)C2O)C(O)C(O)C1O (stereo not given) | > 447 µM | > 447 µM | 
O=c1[nH]cnc(O)c1N=Nc1ccc(/C=C/c2ccc(N=Nc3c(O)nc[nH]c3=O)cc2S(=O)(=O)O)c(S(=O)(=O)O)c1 | > 63.1 µM | > 63.1 µM | 
CN(C)C12CCCCCCC1S(=O)(=O)C2 (stereo not given) | > 363 µM | 302 µM | 
Cc1ccc(S(=O)(=O)NNC(=O)c2cc(C(=O)NNS(=O)(=O)c3ccc(C)cc3)c(C)nc2C)cc1 | > 200 µM | 162 µM | 
CC(C)(C)P1(=O)OCC(c2ccccc2)CO1 (stereo not given) | > 200 µM | 151 µM | 
C1=C(c2ccccc2)CN(c2ccccc2)OC1 | > 57.5 µM | > 57.5 µM | 
